The nature of the first data set: pKa determination in DMF/water by titration with UV-visible spectra. It is filed as physicochemical. The note with it: DMF/water (1/1 by volume) solution, dye 2×10^−5 mol/l. The procedure:
The pKa value is determined in DMF/water (1/1-mixture, by volume) as follows:
The dye is dissolved in a solution of a DMF/water (1/1; volume ratio) to a final concentration of 2×10^−5 mol/l. After the resulting solution is adjusted to pH 2, using 1.0 mol/l hydrochloric acid, the solution is titrated with an aqueous 1.0 mol/l sodium hydroxide solution. Recording the change of the visible ultra-violet absorption spectrum, the inflection point is determined by regression analysis.
With `N#CC1=NN(c2ccccc2)C(=O)C1/N=N/c1ccc(S(N)(=O)=O)cc1` [Dye D-6], the pKa (in general, the negative logarithm of the acid dissociation constant) was 4.2.
`COc1ccc(/N=N/C2C(=O)N(c3ccccc3)N=C2C#N)cc1` [Dye D-7] had a pKa of 4.6.
As to `N#CC(/N=N/c1ccc(S(N)(=O)=O)cc1)C(=O)c1ccccc1` [Dye D-14], the pKa turned out to be 5.82.
`COc1ccc(/N=N/C2C(=O)N(c3ccc(S(N)(=O)=O)cc3)N=C2C#N)cc1` [Dye D-15] showed a pKa of 4.36.
In turn, `Cc1nn2nc(C(C)(C)C)c(/N=N/c3cc(Cl)c(S(N)(=O)=O)cc3Cl)c2[nH]1` [Dye D-17] displayed a pKa of 5.92.
Still for that read-out and setting: next, `CS(=O)(=O)c1ccc(/N=N/c2ccc(O)c3ccccc23)c(C#N)c1` [Dye D-25]: 6.5; `CC(=O)Nc1cc(/N=N/c2ccc(S(C)(=O)=O)cc2C#N)c2ccccc2c1O` [Dye D-26]: 7.1.

The same data set, now with this note: DMF/water (1/1 by volume), dye 2×10^−5 mol/l.
Compound `N#CC1=NN(c2ccccc2)C(=O)C1/N=N/c1cc(Cl)c(S(N)(=O)=O)cc1Cl` [Dye D-18] came in with a pka of 2.86.
The same measure, in the same setting: next, `CS(=O)(=O)Nc1cccc2c(O)ccc(/N=N/c3ccc([N+](=O)[O-])cc3S(C)(=O)=O)c12` [Dye D-21]: 4.32; `NS(=O)(=O)c1cccc(S(=O)(=O)Nc2cccc3c(O)ccc(/N=N/c4ccc([N+](=O)[O-])cc4)c23)c1` [Dye D-22]: 6.34.
In turn, `CCOC(=O)Nc1cc(/N=N/c2ccc(S(C)(=O)=O)cc2C#N)c2c(NS(C)(=O)=O)cccc2c1O` [Dye D-24] showed a pka of 5.09.

(Values after patent US7056355B2, “Hair dye composition and dyeing method” (Kao Corporation, priority 2002, dated 2006).)
